{
  "source": "patent US20170183306A1",
  "about": "“CYCLIC COMPOUNDS HAVING A 1,3 DIAMINO-FUNCTIONALITY FOR USE IN THE TREATMENT OF HIV INFECTION” (Universite Paris Descartes, priority 2014, published 2017)",
  "assay_type_in_all_cases": "cell-based",
  "key": {"[1]": {"test_system": "wild type NL4-3 virus (HIV-1) in HeLa-p4 cells", "experiment": "HeLa-p4 single-cycle HIV-1 infectivity, beta-galactosidase CPRG test", "settings": "for activity at 50 µM: read-out: Hela-p4 CPRG 50 μM; for activity at 100 µM: read-out: Hela-p4 CPRG 100 μM", "procedure,_shortened": "(§1)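 HeLa CD4 LTR-LacZ cells infected with 1 ng p24 of wild-type NL4-3 alongside graded compound concentrations; β-galactosidase measured 48 h post-infection by CPRG colorimetry, expressed as percent of untreated virus control. Viability assessed by MTS absorbance at […].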"}, "HeLa-p4 cells": {"test_system": "HeLa-p4 cells", "experiment": "Cell viability assay (MTS) on HeLa-p4 cells", "settings": "cell viability", "procedure,_shortened": "as §1"}, "J-Lat cells": {"test_system": "J-Lat cells", "experiment": "J-Lat cells, percentage of GFP-positive cells by cytometry", "settings": "50 μM; 24 h, compound alone", "procedure,_shortened": "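J-Lat cells (5.105 per well, RPMI/10% FBS) treated 24 h with compound alone at 37 °C. After PFA fixation, GFP-positive cells counted by flow cytometry and reported as percentage of living fluorescent cells.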"}, "[2]": {"settings": "Human immunodeficiency virus 1, NL43, HeLaP4, 48 h"}, "[3]": {"settings": "Human immunodeficiency virus 1, NL43, HeLaP4, 50 μM, 48 hours after infection, control = NL4-3 virus alone"}, "[4]": {"settings": "Human immunodeficiency virus 1, NL43, HeLaP4, 100 μM, 48 hours after infection, control = NL4-3 virus alone"}, "[5]": {"settings": "Human immunodeficiency virus 1, NL43, HeLaP4, 48 hours after infection, control = NL4-3 virus alone"}},
  "note": "Like-named read-outs stand apart in the source and are kept apart here.",
  "data": [
    {"smiles": "CN(C)c1ccc(CN2C[C@H](N)C[C@H](N)C2)cc1", "note": "[ECO02-069-B, 1-(4-(dimethylamino)benzyl)piperidine-3,5-diamine]", "values": [
      {"measurement": "activity at 50 µM", "setting": "[1]; [2]", "result": 86, "unit": "%"},
      {"measurement": "activity at 100 µM", "setting": "[1]; [2]", "result": 88, "unit": "%"},
      {"measurement": "Hela-p4 MTS 50 μM", "setting": "HeLa-p4 cells", "result": 99},
      {"measurement": "Hela-p4 MTS 100 μM", "setting": "HeLa-p4 cells", "result": 94},
      {"measurement": "J-lat 50 μM", "setting": "J-Lat cells", "result": "1.3 percentage of the living fluorescent cells"}
    ]},
    {"smiles": "COc1cccc(CCN2C[C@H](NC(C)=O)C[C@H](NC(C)=O)C2)c1", "note": "[ECO02-072-C, N,N′-(1-(3-methoxyphenethyl)piperidine-3,5-diyl)diacetamide]", "values": [
      {"measurement": "activity at 50 µM", "setting": "[1]; [3]", "result": 107, "unit": "%"},
      {"measurement": "activity at 100 µM", "setting": "[1]; [4]", "result": 167, "unit": "%"},
      {"measurement": "activity at 200 µM", "setting": "[1]; [5]", "result": 242, "unit": "%"},
      {"measurement": "Hela-p4 MTS 50 μM", "setting": "HeLa-p4 cells", "result": 111},
      {"measurement": "Hela-p4 MTS 100 μM", "setting": "HeLa-p4 cells", "result": 98},
      {"measurement": "Hela-p4 MTS 200 μM", "setting": "HeLa-p4 cells", "result": 84},
      {"measurement": "J-lat 50 μM", "setting": "J-Lat cells", "result": "2.1 percentage of the living fluorescent cells"}
    ]},
    {"smiles": "COc1cccc(CCN2C[C@H](NS(C)(=O)=O)C[C@H](NS(C)(=O)=O)C2)c1", "note": "[ECO02-073-B2, N,N′-(1-(3-methoxyphenethyl)piperidine-3,5-diyl)dimethanesulfonamide]", "values": [
      {"measurement": "activity at 50 µM", "setting": "[1]; [3]", "result": 103, "unit": "%"},
      {"measurement": "activity at 100 µM", "setting": "[1]; [4]", "result": 127, "unit": "%"},
      {"measurement": "activity at 200 µM", "setting": "[1]; [5]", "result": 253, "unit": "%"},
      {"measurement": "Hela-p4 MTS 50 μM", "setting": "HeLa-p4 cells", "result": 96},
      {"measurement": "Hela-p4 MTS 100 μM", "setting": "HeLa-p4 cells", "result": 94},
      {"measurement": "Hela-p4 MTS 200 μM", "setting": "HeLa-p4 cells", "result": 69},
      {"measurement": "J-lat 50 μM", "setting": "J-Lat cells", "result": "0.6 percentage of the living fluorescent cells"}
    ]},
    {"smiles": "COC(=O)N[C@@H]1C[C@H](NC(=O)OC)CN(CCc2cccc(OC)c2)C1", "note": "[ECO02-074-C, dimethyl (1-(3-methoxyphenethyl)piperidine-3,5-diyl)dicarbamate]", "values": [
      {"measurement": "activity at 50 µM", "setting": "[1]; [3]", "result": 139, "unit": "%"},
      {"measurement": "activity at 100 µM", "setting": "[1]; [4]", "result": 186, "unit": "%"},
      {"measurement": "activity at 200 µM", "setting": "[1]; [5]", "result": 326, "unit": "%"},
      {"measurement": "Hela-p4 MTS 50 μM", "setting": "HeLa-p4 cells", "result": 101},
      {"measurement": "Hela-p4 MTS 100 μM", "setting": "HeLa-p4 cells", "result": 91},
      {"measurement": "Hela-p4 MTS 200 μM", "setting": "HeLa-p4 cells", "result": 70},
      {"measurement": "J-lat 50 μM", "setting": "J-Lat cells", "result": "0.4 percentage of the living fluorescent cells"}
    ]},
    {"smiles": "COc1cccc(CCN2C[C@@H](N)C[C@@H](NC(=O)OC(C)(C)C)C2)c1", "note": "[ECO02-078-C]", "values": [
      {"measurement": "activity at 50 µM", "setting": "[1]; [3]", "result": 251, "unit": "%"},
      {"measurement": "activity at 100 µM", "setting": "[1]; [4]", "result": 390, "unit": "%"},
      {"measurement": "activity at 200 µM", "setting": "[1]; [5]", "result": 145, "unit": "%"},
      {"measurement": "Hela-p4 MTS 50 μM", "setting": "HeLa-p4 cells", "result": 105},
      {"measurement": "Hela-p4 MTS 100 μM", "setting": "HeLa-p4 cells", "result": 103},
      {"measurement": "Hela-p4 MTS 200 μM", "setting": "HeLa-p4 cells", "result": 25},
      {"measurement": "J-lat 50 μM", "setting": "J-Lat cells", "result": "0.8 percentage of the living fluorescent cells"}
    ]},
    {"smiles": "CC(C)(C)OC(=O)N[C@@H]1C[C@H](NC(=O)OC(C)(C)C)CN(S(=O)(=O)c2ccccc2)C1", "note": "[ECO02-081-C, di-tert-butyl (1-(phenylsulfonyl)piperidine-3,5-diyl)dicarbamate]", "values": [
      {"measurement": "activity at 50 µM", "setting": "[1]; [3]", "result": 196, "unit": "%"},
      {"measurement": "activity at 100 µM", "setting": "[1]; [4]", "result": 207, "unit": "%"},
      {"measurement": "activity at 200 µM", "setting": "[1]; [5]", "result": 279, "unit": "%"},
      {"measurement": "Hela-p4 MTS 50 μM", "setting": "HeLa-p4 cells", "result": 91},
      {"measurement": "Hela-p4 MTS 100 μM", "setting": "HeLa-p4 cells", "result": 69},
      {"measurement": "Hela-p4 MTS 200 μM", "setting": "HeLa-p4 cells", "result": 77},
      {"measurement": "J-lat 50 μM", "setting": "J-Lat cells", "result": "0.8 percentage of the living fluorescent cells"}
    ]},
    {"smiles": "N[C@@H]1C[C@H](N)CN(S(=O)(=O)c2ccccc2)C1", "note": "[ECO03-001-B, 1-(phenylsulfonyl)piperidine-3,5-diamine]", "values": [
      {"measurement": "activity at 50 µM", "setting": "[1]; [3]", "result": 118, "unit": "%"},
      {"measurement": "activity at 100 µM", "setting": "[1]; [4]", "result": 170, "unit": "%"},
      {"measurement": "activity at 200 µM", "setting": "[1]; [5]", "result": 360, "unit": "%"},
      {"measurement": "Hela-p4 MTS 50 μM", "setting": "HeLa-p4 cells", "result": 97},
      {"measurement": "Hela-p4 MTS 100 μM", "setting": "HeLa-p4 cells", "result": 104},
      {"measurement": "Hela-p4 MTS 200 μM", "setting": "HeLa-p4 cells", "result": 109},
      {"measurement": "J-lat 50 μM", "setting": "J-Lat cells", "result": "0.6 percentage of the living fluorescent cells"}
    ]},
    {"smiles": "N[C@@H]1C[C@H](N)CN(c2ccc(NC(=O)c3ccccc3)cc2)C1", "note": "[ECO03-002-C, N-(4-(3,5-diaminopiperidin-1-yl)phenyl)benzamide]", "values": [
      {"measurement": "activity at 50 µM", "setting": "[1]; [3]", "result": 120, "unit": "%"},
      {"measurement": "activity at 100 µM", "setting": "[1]; [4]", "result": 165, "unit": "%"},
      {"measurement": "activity at 200 µM", "setting": "[1]; [5]", "result": 317, "unit": "%"},
      {"measurement": "Hela-p4 MTS 50 μM", "setting": "HeLa-p4 cells", "result": 115},
      {"measurement": "Hela-p4 MTS 100 μM", "setting": "HeLa-p4 cells", "result": 116},
      {"measurement": "Hela-p4 MTS 200 μM", "setting": "HeLa-p4 cells", "result": 74},
      {"measurement": "J-lat 50 μM", "setting": "J-Lat cells", "result": "0.5 percentage of the living fluorescent cells"}
    ]}
  ]
}
